Source: patent US10240124B2, “Cell culture substrate comprising a laminin and a cadherin” (BioLamina AB, priority 2011, dated 2019)

Columns and labels:
[1] = system: ES cells; assay: Embryoid body formation; format: cell-based, human; conditions: same three cultures as teratoma test
Procedure: ES cells from LN-521 coated cell culture dishes were exposed to TrypLE™Select for one minute at 37° C., 5% CO2, washes two times with a medium, broken into large pieces and cultured in suspension in low adhesion plates. The medium used for this was Knockout DMEM (GIBCO Invitrogen Corporation) supplemented with 2 mM L-glutamine, 20% fetal calf serum (GIBCO Invitrogen Corporation), 0.1 mM β-mercaptoethanol (GIBCO Invitrogen Corporation) and 1% non-essential amino acids (GIBCO Invitrogen Corporation). After 1-2 weeks in suspension, the embryoid bodies were transferred onto gelatin coated tissue cell culture 96-well plates (Sarstedt), cultured for 1-2 weeks, then fixed, stained with antibodies against markers of all three embryonic germ line layers (smooth muscle actin, MAP-2 and α-fetoprotein) and analyzed as described above for immunofluorescence.

[2] = system: myosin light chain (MLC); assay: Western blot of phosphorylated myosin light chain; format: cell-based, human; conditions: one and six hours after plating, FIG. 12 and 13
Procedure: HS 181 cells were trypsinized into single cell suspension as described above. For inhibition experiments, the cells were kept in O3 medium with blocking antibodies or pathway inhibitors for 30 minutes and then 450K cells were plated on 35 mm dishes precoated with the appropriate matrix coating. For other experiments, same number of cells was plated directly after trypsinization. […] After two washings in ice-cold PBS, the plates with cells were snap frozen in liquid nitrogen and stored at −80° C. To prepare samples for western blots and ELISA, the plates were slowly thawed and kept on ice with 100-150 μl of lysis buffer (50 mM Tris-HCl, pH7.5, 150 mM NaCl, 0.5% deoxycholate, 0.5% SDS, 1% Triton X-100, 1% Igepal, Complete™ (Roche) and Phospho-Stop™ (Roche)) on top. Then, the cells were scraped, pipetted and sheared through a 27 G ¾″ needle. After that, the cell pellets were clarified by centrifugation at 16,100 rcf for 15 minutes at 4° C. For western blots, 4-12% gradient gels were used for SDS electrophoresis and the proteins were transferred to PVDF membranes. The membrane was hybridized with the antibody of interest according to the manufacturer's instructions. […] For the densitometry analysis the films were scanned at 2,400 dpi and analyzed by the Chemilmager5500 program (1 D-Multi Line densitometry mode). […]

[3] = system: Human ES cells; assay: Real-time quantitative RT-PCR of Oct4 and Nanog (Example 1); format: cell-based; conditions: FIG. 11
Procedure: Total RNA was isolated and cDNA was synthesized as described in Rodin et al., Nature Biotechnol., vol. 28, pp. 611-615 (2010). Real-time quantitative RT-PCR Taqman assays were performed using the Applied Biosystems 7300 Real-Time PCR System. All reactions were done in quadruplicate with predeveloped gene expression assay mix (Applied Biosystems) containing primers and a probe for the mRNA of interest. Additional reactions for each experiment included predeveloped gene expression assay mix for GAPDH, used to normalize the RNA input. All data were analyzed with 7300 System SDS Software version 1.4.

[4] = system: SCID mouse; assay: Teratoma formation; format: in vivo; conditions: HS181 13 passages, H1 12 passages in O3; H1 7 passages in TeSR2
Procedure: Teratoma formation experiments were performed by implantation of approximately 10^6 cells beneath the testicular capsule of a young (7-week-old) severe combined immunodeficiency (SCID) mouse. Three animals per each cell line were used. Teratoma growth was observed by weekly palpation, and the mice were sacrificed eight weeks after the implantation. The teratomas were fixed, and sections were stained with hematoxylin and eosin (HE) or with hematoxylin, eosin and PAS (HE-PAS). […] All animal experiments were performed at the infection-free animal facility of the Karolinska University Hospital in accordance with ethical committee approval.

[5] = system: human embryonic stem cells; assay: Survival of hES cells plated in single cell suspension on precoated dishes (description); format: cell-based; conditions: O3 medium, 30 Kcells/cm^2
Source text: In other aspects, the present disclosure provides a new material, isolated laminin-521, which permits human embryonic stem cell survival after dissociation into single cell suspension. The stem cells were dissociated into single cell suspension by Trypsin-EDTA treatment, pelleted by centrifugation, resuspended into O3 medium, filtered through a 40 μm sieve, and plated at a density of 30 Kcells/cm^2 on cell culture dishes precoated by either isolated laminin-521, laminin-511, or Matrigel. After one day in culture, the cells plated on Matrigel died, as is known in the art.

[6] = system: Human ES cells; assay: FACS analysis for OCT4 (Example 1); format: cell-based; conditions: after several single cell suspension passages, O3 medium, FIG. 9 and 10
Procedure: OCT4 expression was analyzed as described in Ludwig, T. E. et al. Derivation of human embryonic stem cells in defined conditions. Nat. Biotechnol. 24, 185-187 (2006). Cells were run on FACSCalibur Flow Cytometer (Becton Dickinson). Data were analyzed with CellQuest software (Becton Dickinson).

[7] = biological target: Integrin α6β1 (Homo sapiens, UniProt P05556+P23229); conditions: cited from earlier work
Sequence of Integrin α6β1 (P23229 24-1130): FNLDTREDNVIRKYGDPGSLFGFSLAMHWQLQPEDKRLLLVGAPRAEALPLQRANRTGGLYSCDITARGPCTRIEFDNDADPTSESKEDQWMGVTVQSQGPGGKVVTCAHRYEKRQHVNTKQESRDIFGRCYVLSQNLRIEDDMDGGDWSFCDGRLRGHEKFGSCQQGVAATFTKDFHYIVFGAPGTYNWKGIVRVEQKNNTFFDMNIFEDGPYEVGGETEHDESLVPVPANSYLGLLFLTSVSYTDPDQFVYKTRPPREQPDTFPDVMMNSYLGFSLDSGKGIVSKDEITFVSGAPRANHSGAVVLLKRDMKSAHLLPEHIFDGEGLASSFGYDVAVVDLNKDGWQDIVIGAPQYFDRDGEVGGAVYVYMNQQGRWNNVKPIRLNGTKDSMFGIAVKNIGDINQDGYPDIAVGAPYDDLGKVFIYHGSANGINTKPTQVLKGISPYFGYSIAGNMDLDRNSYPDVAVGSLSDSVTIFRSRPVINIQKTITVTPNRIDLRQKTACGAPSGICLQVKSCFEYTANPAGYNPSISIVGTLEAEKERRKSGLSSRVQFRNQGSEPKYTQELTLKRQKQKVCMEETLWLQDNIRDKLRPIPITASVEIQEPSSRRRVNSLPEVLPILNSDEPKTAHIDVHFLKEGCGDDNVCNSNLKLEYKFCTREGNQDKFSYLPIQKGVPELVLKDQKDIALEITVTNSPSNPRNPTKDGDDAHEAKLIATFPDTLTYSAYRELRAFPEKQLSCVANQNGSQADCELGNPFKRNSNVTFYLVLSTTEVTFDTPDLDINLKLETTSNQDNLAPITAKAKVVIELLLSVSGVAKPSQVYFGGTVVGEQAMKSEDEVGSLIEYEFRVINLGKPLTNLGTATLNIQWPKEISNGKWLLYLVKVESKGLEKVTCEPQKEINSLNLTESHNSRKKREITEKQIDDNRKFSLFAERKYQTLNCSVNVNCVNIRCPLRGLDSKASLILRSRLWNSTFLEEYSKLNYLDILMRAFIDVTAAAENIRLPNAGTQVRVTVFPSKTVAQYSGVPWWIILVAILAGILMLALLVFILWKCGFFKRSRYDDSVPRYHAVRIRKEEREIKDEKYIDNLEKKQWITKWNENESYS
Sequence of Integrin α6β1 (P05556 21-798): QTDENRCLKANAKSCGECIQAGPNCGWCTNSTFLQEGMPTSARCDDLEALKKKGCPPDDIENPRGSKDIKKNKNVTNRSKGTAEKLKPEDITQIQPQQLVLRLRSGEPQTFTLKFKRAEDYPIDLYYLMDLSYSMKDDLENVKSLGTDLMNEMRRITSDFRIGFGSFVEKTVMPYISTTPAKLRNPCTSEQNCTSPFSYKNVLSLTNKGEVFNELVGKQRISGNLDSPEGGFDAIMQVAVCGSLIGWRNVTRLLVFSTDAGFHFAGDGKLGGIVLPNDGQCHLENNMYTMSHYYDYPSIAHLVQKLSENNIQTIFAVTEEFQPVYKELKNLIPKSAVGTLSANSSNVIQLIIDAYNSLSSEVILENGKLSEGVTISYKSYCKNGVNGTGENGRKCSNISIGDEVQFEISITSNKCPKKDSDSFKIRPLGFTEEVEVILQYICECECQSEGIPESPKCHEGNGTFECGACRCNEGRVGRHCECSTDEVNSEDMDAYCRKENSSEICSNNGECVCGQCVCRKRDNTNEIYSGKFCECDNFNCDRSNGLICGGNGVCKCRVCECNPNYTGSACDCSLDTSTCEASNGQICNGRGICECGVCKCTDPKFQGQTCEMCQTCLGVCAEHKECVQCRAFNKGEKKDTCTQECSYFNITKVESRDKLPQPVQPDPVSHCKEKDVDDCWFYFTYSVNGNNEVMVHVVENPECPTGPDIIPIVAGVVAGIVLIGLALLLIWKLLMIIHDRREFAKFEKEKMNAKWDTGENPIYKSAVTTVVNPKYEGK

[8] = system: human ES cells (HS181); assay: Cell adhesion assay, Crystal Violet (Example 1); format: cell-based
Procedure: Ninety-six-well tissue cell culture plates were coated overnight at 4° C. with sterile solutions of the ECM proteins mouse LN-111 (Invitrogen), human recombinant LN-511, and human recombinant LN-521, all at a concentration of 30 μg/ml (5 μg/cm^2). For control cells, BD Matrigel™ hESC qualified (BD Biosciences) was used according to the manufacturer's instructions.
The assay was performed as described (Extracellular Matrix Protocols, 2000). Briefly, 96-well plates were coated by extracellular matrix proteins as described above and blocked by O3 medium containing bovine serum albumin. The ES cells were plated at a cell density of 600 cell/mm^2 upon extracellular matrix-coated plates and were left to adhere for either 1 hour or 1 day at the cell incubator. Non-adherent cells were washed away, and adherent cells were fixed for 20 min by 5% glutaraldehyde, stained by 0.1% Crystal Violet.

With “LN-521: protein formed by joining α5, β2 and γ1 laminin chains; human recombinant, produced in HEK293 cells” the “differentiation in vitro, embryoid bodies expressing markers of mesoderm, ectoderm and endoderm” value [1] was “retained the competence to form embryoid bodies”, the “phosphorylation of MLC compared with cells on Matrigel and LN-111” value [2] was “even higher” and the “number of mRNA transcripts of Oct4 and Nanog compared with Matrigel” value [3] was “higher numbers of transcripts”. For the same substance, the “histology of teratomas formed in SCID mice” value [4] was “development of tissues containing all three germ lineages”, the “survival of human embryonic stem cells after one day in culture” value [5] was “survived and started to proliferate” and the “percentage of Oct4 positive (pluripotent) cells compared with Matrigel” value [6] was “much higher percentage”. The “binding affinity of integrin α6β1 compared with LN-111” value [7] was “higher than that for LN-111”, the “adhesion at 1 day without additives compared with all dishes including the ROCK inhibitor” value ([8]; FIG. 7) was “similar” and the “cells remaining attached / surviving 24 hours after plating” value ([8]; HS181 completely dissociated, O3 medium without any additives, FIG. 4) was “survived”. For the same substance, the “adhesion of human ES cells at 1 hour” value ([8]; O3 medium without any additives, without Y-27632, FIG. 6) was “roughly the same” and the “adhesion at 1 day relative to Matrigel without additives” value ([8]; without additives, FIG. 7) was 20 times.
